What all share (format): in vivo
Assay [1] in a line: Ex.8 therapeutic HIE rat model: brain weight and brain-body weight ratio. The settings on record: 10 mg/kg/day E4, PND14, vs vehicle. Here is the method: All the compounds used for in vivo studies were dissolved in absolute Ethanol (ETOH) and further diluted in saline solution at a final concentration of ETOH 10%. An equal volume (5 μ1/g) of the solution was injected intraperitoneally (ip) into the pups from study groups. Rat pups from the vehicle group were ip injected a saline solution containing 10% ETOH. Rat pups from the Sham group were not injected at all.
To study the therapeutic effect of estetrol, newborn rat pups were assigned to one of the following 14 groups at postnatal day 7 (FIG. 23(B)): Sham group (n=12), Vehicle (n=15), 5 mg/kg/day E4 (n=11), 10 mg/kg/day E4 (n=11), 5 mg/kg/day E4+1.6 mg/kg/day PROG (n=11), 10 mg/kg/day E4+1.6 mg/kg/day PROG (n=11), 5 mg/kg/day E4+16 mg/kg/day PROG (n=11), 10 mg/kg/day E4+16 mg/kg/day PROG (n=13), 5 mg/kg/day E4+136 ng//kg/day E2 (n=11), 10 mg/kg/day E4+136 ng/kg/day E2 (n=11), 5 mg/kg/day E4+1.6 mg/kg/day PROG+136 ng/kg/day E2 (n=12), 10 mg/kg/day E4+1.6 mg/kg/day PROG+136 ng/kg/day E2 (n=11), 5 mg/kg/day E4+16 mg/kg/day PROG+136 ng/kg/day E2 (n=11), 10 mg/kg/day E4+16 mg/kg/day PROG+136 ng/kg/day (n=12) groups. […] After surgery, the pups were returned to their dams and allowed to recover for 1 hour. The pups were then placed in a humidified hypoxic in vivo cabinet (CoyLab). […]

Assay [2] deals with Myelin Basic Protein (MBP). In words: Ex.7 therapeutic HIE rat model: myelin basic protein staining. The settings on record: all the E4 treated groups, vs vehicle. Here is the method: FIG. 22. Myelin Basic Protein (MBP) staining of brain coronal sections in rat pups that were treated with estetrol. Brains were removed upon sacrifice at postnatal day 14 and paraformaldehyde-fixed and paraffin-embedded brain samples were coronally sectioned at the hippocampus region. The sections were processed for detection of white matter damage through immunohistological staining with anti-MBP antibody. (A-F) MBP staining of brain coronal sections (scale bar: 2 mm) is shown. (G-L) MBP staining of cingulum of the left hemisphere is (scale bar: 2 mm) is shown. (M) The ratio of the MBP positive areas OD ratio was calculated as the MBP positive area OD of the ipsilateral hemisphere divided by the MBP positive area OD of the contralateral hemisphere. 10 samples from each study group were analyzed. The ratio of the MBP positive area OD in the Sham group was considered by default as 1.0.
The sections were processed for immunohistochemical detection of neuronal myelin basic protein disruption. For antigen retrieval, the sections were heated in 10 mmol/L citrate buffer (pH 6.0) at 100° C. for 10 min. […] 10 samples from each study group of both study designs were analyzed with the aid of an image scanner (Nanozoomer Virtual Microscopy, Hamamatsu, Tokyo, Japan) and ImageJ software (NIH, USA). The MBP positive areas optical densities in the ipsilateral and contralateral hemispheres were measured. […]

Assay [3] in a line: Ex.3 neuroprotective HIE rat model: brain weight. Particulars: PND14. On the procedure:
Animals were then perfused transcardially with 0.9% saline solution at 4° C., and then with 4% paraformaldehyde in a 0.1-mol/L phosphate-buffered saline solution (pH 7.4) at 4° C. The brains were quickly isolated, weighed and immersed in the same fixative solution at 4° C. for 24 hours, dehydrated with a graded series of ethanol and xylene, and embedded in paraffin.
Newborn rat pups were assigned to one of the following 6 groups from postnatal day 4: Sham group (n=24), Vehicle group (n=14), E4 1 mg/kg/per day group (n=11), E4 5 mg/kg/per day group (n=14), E4 10 mg/kg/per day group (n=14), or E4 50 mg/kg/per day group (n=19). From postnatal day 4, rat pups were intraperitoneally injected either vehicle (Vehicle group) or E4 (1, 5, 10, or 50 mg/kg/per day in accordance to the E4 group assignment) or neither vehicle nor E4 (Sham group). At day 7, 30 minutes after last injection, animals were anesthetized with isoflurane (induction, 3.0%; maintenance, 1.5%), and the rat pups from Vehicle and E4 groups passed through surgery encompassing left common carotid artery double ligation and cut. After the procedure, the pups were returned to their dams and were allowed to recover for 1 hour. The pups were then placed in the humidified hypoxic in vivo cabinet (CoyLab, Grass Lake, Mich., USA). Hypoxia was produced by the inhalation of 11%-8% of oxygen balanced by nitrogen at decreased concentration of oxygen for 20 minutes, followed by inhalation of 8% oxygen and 92% nitrogen at constant concentration for 35 minutes. All the manipulations were performed at 37° C. The Sham group went through similar procedures without left common carotid artery ligation followed by hypoxia nor injection. Rat pups recovered with their dams and reared normally until being sacrificed at postnatal day 14.

With `C[C@]12CC[C@@H]3c4ccc(O)cc4CC[C@H]3[C@@H]1[C@@H](O)[C@@H](O)[C@@H]2O` [E4, 1,3,5(10)-estratrien-3,15α,16α,17β-tetrol], the brain weight result in assay [1] is “significantly higher brain weight than the vehicle alone”; in assay [3] (1 mg/kg E4 ip PND4-7 before HI), 1.155 ± 0.022 g; in assay [3] (5 mg/kg E4 ip PND4-7 before HI) it was 1.181 ± 0.023 g; in assay [3] (10 mg/kg E4 ip PND4-7 before HI), 1.179 ± 0.012 g; in assay [3] (50 mg/kg E4 ip PND4-7 before HI), 1.163 ± 0.016 g. In addition, the “ratio of the MBP-positive area OD” value in assay [2] is reported as “significantly higher”.

Values taken from patent US9808470B2, “Estrogenic components for use in the treatment of neurological disorders” (UNIVERSITE DE LIEGE, priority 2012, dated 2017).
